Laboratory results from US9161944B2, “Method for preventing cancer metastasis” (INSERM (INSTITUT NATIONAL DE LA SANTE ET DE LA SANTE ET DE …, priority 2010, dated 2015).

Key:
PKCs = PKCs activity (alpha, Beta 1, Beta 2, Gamma, Delta, Epsilon, Zeta, Eta, Theta, Iota); type: biochemical; conditions: ten PKCs, FIG. 11C
Procedure: (§1) FIG. 11: Effects of JPH1701 on PAF receptor, PLC and PKCs activities. FIG. 11A) Histogram showing the percentage of control specific binding of 3H-C16-PAF to recombinant PAF receptor obtained from membrane homogenates of CHO cells by 0.3 and 2 μM edelfosine and by 0.3 and 2 μM JPH1701. FIG. 11B) Histogram showing the percentage of control agonist response (% effect i.e: increase of intracellular calcium concentration) of 0.3 and 2 μM edelfosine and JPH1701 on PAF receptor normalized to the response induced by 100 nM C16-PAF. […] FIG. 11C-D) Dose responses curves showing the effect of JPH1701 on PKCs (FIG. 11C, PKCs are: alpha, Beta 1, Beta 2, Gamma, Delta, Epsilon, Zeta, Eta, Theta, Iota) and PhosphoLipase C (PLC) activities (FIG. 11D).

[1] = system: endogenously HEK potassium current; experiment: Endogenous HEK potassium current (patch clamp); type: cell-based; conditions: applied concentration range; data not shown
Procedure: Whatever the concentration tested approximately 40 sec was needed to reduce 50% of the amplitude of the current. […] Increasing intracellular calcium concentration by the addition of 5 μM A23187 totally reversed the effect of JPH1701 (data not shown).

MCF-10A [2] = experiment: Transwell motility of non cancerous cells; type: cell-based, human; conditions: 10 nM to 1 μM, FIG. 6C
Procedure: (§2) FIG. 6: JPH1701 (or Ohmline) activity on cell motility on cancerous MDA-MB-435s cells and on non cancerous MCF-10A cells. The motility was tested by transwell assay. Additionally, viability tests were performed using MTT assays. FIG. 6A-B) JPH1701 (the concentrations of JPH1701, for the FIG. 6A, are 0 (control condition), 10 nM, 100 nM, 300 nM and 1 μM) reduces motility (FIG. 6A) of MDA-MB-435s wild type (WT) cells from 10 nM without affecting viability (FIG. 6B) except at 10 μM. FIG. 6C-D) MCF-10A motility (FIG. 6C) and viability (FIG. 6D) are not affected by JPH1701 (the concentrations of JPH1701, for the FIG. 6C, are 0 (control condition), 10 nM, 100 nM, 300 nM and 1 μM). FIG. 6E-F) Effect on SK3 dependent motility.
(§3) The immortalized normal mammary epithelial cell lines MCF-10A and 184A1 were cultured in DMEM/Ham's F-12, 1:1 mix containing 5% horse serum (Invitrogen Life Technologies, France), insulin (10 μg/ml), epidermal growth factor (20 ng/ml), hydrocortisone (0.5 μg/ml) and, respectively for MCF-10A and 184A1, 100 ng/ml cholera toxin and 1 ng/ml cholera toxin plus 5 μg/ml transferrin.

SK1 = biological target: T1, SK1 (Homo sapiens, UniProt Q92952); experiment: Whole-cell K+ currents in HEK293 cells expressing recombinant SK1; type: cell-based; conditions: 10 μM, FIG. 9B
T1 construct: expressed in transfected cells; host or cells: HEK293
Procedure: FIG. 9. Selectivity effect of JPH1701 on SKCa subtype and on IKCa channels. FIG. 9A) Example of whole-cell K^+ currents recorded in HEK293 cells expressing recombinants SK1, SK2, SK3 and IKCa channels before and after application of 10 μM JPH1701 (upper graphs: SK1 and SK2 respectively, bottom graphs: SK3 and IKCa respectively). Currents were generated by ramp protocol from −100 mV to +60 mV in 500 ms from a constant holding of 0 mV and with a pCa 6. FIG. 9B) Histograms showing the effect of 10 μM JPH1701 on SKCa (SK1, SK2, SK3) and IKCa current amplitudes recorded at 0 mV. […] For each channel (SK1, SK2, SK3 and IKCa) the left column (pale grey) represents the control result and the right column (dark grey) represents the result after JPH1701 application.
The selectivity of JPH1701 toward the others members of the SKCa/IKCa channels was tested. […] The experimental protocol was similar to the one used in FIG. 8. JPH1701 was tested for membrane potential from +60 mV to −100 mV on 500 msec.

SKCa channel = experiment: 125I-apamin binding, membrane homogenates of cerebral cortex; conditions: 0.3 and 2 μM, FIG. 8E
Procedure: FIG. 8: Effect of JPH1701 on SK3 channel activity. […] Results are expressed as the mean±S.E.M. FIG. 8C) Histograms showing the effect of racemic hexadecyloxy-2-O-methyl-sn-glycerol-lactose (JPH 1701 or Ohmline, i.e: JPH1701 in the example) mixture and of both enantiomers (R-JPH1701 and S-JPH1701) on SK3 activity. The percentages of inhibition represent the ratio (SK3 current amplitude and chord conductance (in the presence of 10 μM JPH1701)/SK3 current amplitude in control experiments). Black bars show current at 0 mV and grey bars indicate the chord conductance. FIG. 8D) Dose-response effect of the form + of JPH1701 (concentrations: 0 (control), 0.3, 1 and 10 μM). Columns, mean, bars, SEM, (5 cells for racemic mix and 4 cells for + and − forms). FIG. 8E) Histogram showing the % of control specific binding of ^125I-Apamin ([…]) to SKCa channel obtained from membrane homogenates of cerebral cortex by 0.3 and 2 μM JPH1701.
To investigate whether JPH1701 interacts with the apamin binding site, 125I-apamin binding studies were performed.

MCF-10A [3] = experiment: Viability (MTT) of non cancerous cells; type: cell-based, human; conditions: FIG. 6D
Procedure: as §2, §3

PhosphoLipase C (PLC) = experiment: PhosphoLipase C activity; type: biochemical; conditions: FIG. 11D
Procedure: as §1

T1 sequence (Q92952 whole entry): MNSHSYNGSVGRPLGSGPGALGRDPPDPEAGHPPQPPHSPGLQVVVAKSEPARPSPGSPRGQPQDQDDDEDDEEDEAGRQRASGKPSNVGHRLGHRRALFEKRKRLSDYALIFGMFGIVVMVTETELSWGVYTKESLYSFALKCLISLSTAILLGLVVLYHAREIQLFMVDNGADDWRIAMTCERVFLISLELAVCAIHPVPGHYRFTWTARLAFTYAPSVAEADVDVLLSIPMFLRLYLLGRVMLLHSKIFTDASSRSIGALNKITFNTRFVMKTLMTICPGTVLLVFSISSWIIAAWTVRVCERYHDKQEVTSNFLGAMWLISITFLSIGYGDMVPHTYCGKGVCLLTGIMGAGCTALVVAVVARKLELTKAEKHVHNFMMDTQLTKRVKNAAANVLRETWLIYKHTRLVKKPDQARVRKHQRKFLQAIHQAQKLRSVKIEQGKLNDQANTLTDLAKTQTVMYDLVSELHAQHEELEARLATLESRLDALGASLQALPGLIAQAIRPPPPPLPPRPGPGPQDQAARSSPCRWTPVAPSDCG

“hexadecyloxy-2-O-methyl-sn-glycerol-lactose [JPH1701]” was tested, and the “Effect on PKC activity” value (PKCs) was “did not affect”, the “Effect on endogenous HEK potassium current” value [1] was “not significantly affected” and the “Effect on cell migration of non-cancerous cells” value (MCF-10A [2]) was “did not affected”. For the same substance, the “Effect on SK1 current amplitude at 0 mV” value (SK1) was “significantly reduced”, the “Inhibition of 125I-apamin binding” value (SKCa channel) was “does not inhibit” and the “Effect on cell viability of non-cancerous cells” value (MCF-10A [3]) was “did not affected”. The IC50 (PhosphoLipase C (PLC)) was 7 µM.
